Laboratory results as given in patent US20240189265A1, “COMPOSITIONS AND TECHNIQUES FOR VAGINAL INSERTION” (Daré Bioscience, Inc., priority 2021, published 2024).

Columns and labels:
[1] = Solubility of drug substance in simulated vaginal fluid; type: physicochemical; settings: fassgf or other biorelevant
[2] = Compatibility of Diclofenac Sodium in Gel Formulation 1; type: physicochemical; settings: 2%, 3% gels, viscosity, pH, appearance
Text: Variation in pH was reported between prototypes but was expected due to the chemical nature of the API.

## O=C(O)Cc1ccccc1Nc1c(Cl)cccc1Cl [Diclofenac Sodium]
[1]
  solubility: ~16 µg/mL
[2]
  compatibility with the Gel Formulation 1 composition: Compatible
